4 compounds from patent US20230167088A1, “1-PYRAZINYLPYRAZOLYL-3-OXYALKYL ACIDS AND THEIR DERIVATIVES, AND THEIR USE FOR CONTROL OF UNDESIRED PLANT GROWTH” (BAYER AKTIENGESELLSCHAFT, priority 2020, published 2023) can be followed below.

Assay [1] relates to POLCO. The assay can be described thus: Herbicidal post-emergence action 1a (greenhouse pots, visual rating). The format is in vivo, Polygonum convolvulus. The following applies: dosage 320 g/ha, visual rating about 3 weeks after treatment. A digest of the protocol: (§1)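 Weeds and crops sown in sandy loam in greenhouse pots were sprayed post-emergence at the one-leaf stage (2–3 weeks after sowing) with WP or EC formulations plus 0.5% additive at 600 l/ha water, 320 and/or 80 g/ha. About 3 weeks later damage was rated visually against untreated controls (0% = no effect, 100% = dead).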

A further assay relates to ECHCG. The assay can be described thus: Herbicidal post-emergence action 1b (twin sowing, 1280 g/ha). It is filed as in vivo, Echinochloa crus-galli. The following applies: dosage 1280 g/ha, visual rating about 3 weeks after treatment. A digest of the protocol:
(§2)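 Sow paired weed species in sandy loam pots and grow in the greenhouse; at the one-leaf stage (2–3 weeks) spray green parts with compound suspension or emulsion containing 0.5% additive at 600 L water/ha; keep about 3 weeks, then score damage visually relative to untreated plants.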

Assay [2] concerns STEME. The description is as above. The format is in vivo, Stellaria media. The following applies: dosage 1280 g/ha, visual rating about 3 weeks after treatment. A digest of the protocol:
as §2

In another assay the test system is SETVI. The assay can be described thus: Herbicidal pre-emergence action 2a (greenhouse pots, visual scoring). It is filed as in vivo, Setaria viridis. The settings on record: dosage 320 g/ha, visual scoring after about 3 weeks vs untreated controls. An outline of the steps:
(§3)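 Pre-emergence soil-surface spray: WP/EC, 0.5% additive, 600 l/ha water, 320 and/or 80 g/ha. Greenhouse ~3 wk. Visual % damage vs untreated (100% = plants dead, 0% = like control).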

For assay [3], the system named is MATIN. The description is as above. The format is in vivo, Matricaria inodora. The settings on record: dosage 320 g/ha, visual scoring after about 3 weeks vs untreated controls. A digest of the protocol: as §3
The test system of assay [4] is POLCO. Described as above. It is filed as in vivo, Polygonum convolvulus. The settings on record: dosage 320 g/ha, visual scoring after about 3 weeks vs untreated controls. An outline of the steps: as §3
For assay [5], the system named is VERPE. Described as above. It is filed as in vivo, Veronica persica. The settings on record: dosage 320 g/ha, visual scoring after about 3 weeks vs untreated controls. An outline of the steps: as §3
A further assay deals with POAAN. Briefly: Herbicidal pre-emergence action 2b (doubly sown, 1280 g/ha). The format is in vivo, Poa annua. The settings on record: doubly sown pots, dosage 1280 g/ha, visual scoring after about 3 weeks. An outline of the steps: (§4)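 Read-out: visual percentage damage relative to untreated controls, scored after roughly 3 weeks in the greenhouse, where 100% means plants died and 0% equals control. Seeds were sown two species per pot in sandy loam and covered before the compounds, formulated as WP or EC with 0.5% additive, were sprayed onto the soil at 600 L/ha.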

Assay [6] has as its system MATIN. Described as above. It is filed as in vivo, Matricaria inodora. The following applies: doubly sown pots, dosage 1280 g/ha, visual scoring after about 3 weeks. An outline of the steps:
as §4

Assay [7] has as its system STEME. The description is as above. It is filed as in vivo, Stellaria media. The settings on record: doubly sown pots, dosage 1280 g/ha, visual scoring after about 3 weeks. A digest of the protocol:
as §4

The next assay concerns AMARE. The assay can be described thus: Herbicidal post-emergence action 1a (greenhouse pots, visual rating). The format is in vivo, Amaranthus retroflexus. The following applies: visual rating about 3 weeks after treatment. An outline of the steps: as §1
Assay [8] has as its system MATIN. The assay is described as above. The format is in vivo, Matricaria inodora. The following applies: dosage 320 g/ha, visual rating about 3 weeks after treatment. A digest of the protocol:
as §1

The test system of assay [9] is VERPE. The description is as above. The format is in vivo, Veronica persica. The settings on record: visual rating about 3 weeks after treatment. A digest of the protocol:
as §1

The subject of another assay is PHBPU. The description is as above. It is filed as in vivo, Pharbitis purpurea. The following applies: visual rating about 3 weeks after treatment. An outline of the steps:
as §1

With `C[C@@H](Oc1nn(-c2cnccn2)c(-c2cccc(F)c2)c1Br)C(=O)O` [Example I-48], the “Post-emergence action against POLCO in %” value in the assay on POLCO [1] amounted to 100%. Further, the “Post-emergence action at 1280 g/ha against ECHCG in %” value with ECHCG was 100%. Moreover, in the assay on STEME [2], the “Post-emergence action at 1280 g/ha against STEME in %” value is recorded as 100%. For the same compound, the “Pre-emergence action against SETVI in %” value with SETVI is reported as 100%. Also, the “Pre-emergence action against MATIN in %” value in the assay on MATIN [3] is 100%. Also, the “Pre-emergence action against POLCO in %” value in the assay on POLCO [4] is 100%. The “Pre-emergence action against VERPE in %” value in the assay with VERPE [5] was determined as 100%. For the same compound, the “Pre-emergence action at 1280 g/ha against POAAN in %” value with POAAN is listed as 100%. In addition, in the assay on MATIN [6], the “Pre-emergence action at 1280 g/ha against MATIN in %” value was 100%. The “Pre-emergence action at 1280 g/ha against STEME in %” value with STEME [7] is recorded as 100%.

For the compound `COC(=O)[C@@H](C)Oc1nn(-c2cnccn2)c(-c2ccc(F)c(F)c2)c1C#N` [Example I-46], the “Post-emergence action against AMARE in %” value in the assay with AMARE (dosage 80 g/ha) and with AMARE (dosage 320 g/ha) was 80% each time. Further, the “Post-emergence action against MATIN in %” value with MATIN [8] is listed as 80%. Further, the “Post-emergence action against POLCO in %” value in the assay with POLCO [1] stood at 100%. The “Post-emergence action against VERPE in %” value with VERPE [9] (dosage 320 g/ha) is 80%. Also, the “Post-emergence action at 1280 g/ha against ECHCG in %” value in the assay on ECHCG worked out at 100%. Further, the “Post-emergence action at 1280 g/ha against STEME in %” value in the assay with STEME [2] amounted to 90%. Further, the “Pre-emergence action against SETVI in %” value in the assay on SETVI is listed as 100%. For the same compound, in the assay on MATIN [3], the “Pre-emergence action against MATIN in %” value is 100%. Also, the “Pre-emergence action against POLCO in %” value with POLCO [4] turned out to be 100%. The “Pre-emergence action against VERPE in %” value in the assay on VERPE [5] is listed as 100%. In the assay with POAAN, the “Pre-emergence action at 1280 g/ha against POAAN in %” value is 100%. For the same compound, the “Pre-emergence action at 1280 g/ha against MATIN in %” value in the assay on MATIN [6] turned out to be 100%. Besides, in the assay on STEME [7], the “Pre-emergence action at 1280 g/ha against STEME in %” value is listed as 100%.

In the case of `COC(=O)C(C)Oc1nn(-c2cnccn2)c(-c2ccc(F)nc2)c1Br` (racemic) [Example I-12], the “Post-emergence action against AMARE in %” value in the assay with AMARE (dosage 80 g/ha) and in the assay on AMARE (dosage 320 g/ha) was 80% each time. Moreover, the “Post-emergence action against MATIN in %” value in the assay on MATIN [8] came to 80%. Moreover, the “Post-emergence action against PHBPU in %” value in the assay with PHBPU (dosage 80 g/ha) is reported as 80%; in the assay on PHBPU (dosage 320 g/ha), 90%. In addition, in the assay with POLCO [1], the “Post-emergence action against POLCO in %” value is reported as 90%. In addition, the “Post-emergence action against VERPE in %” value in the assay on VERPE [9] (dosage 80 g/ha) came out at 80%; in the assay with VERPE [9] (dosage 320 g/ha), 90%. In addition, the “Post-emergence action at 1280 g/ha against ECHCG in %” value in the assay with ECHCG worked out at 90%. The “Post-emergence action at 1280 g/ha against STEME in %” value in the assay on STEME [2] is on record as 100%. Also, the “Pre-emergence action against SETVI in %” value in the assay with SETVI came out at 100%. In the assay with POLCO [4], the “Pre-emergence action against POLCO in %” value was 90%. The “Pre-emergence action against VERPE in %” value in the assay with VERPE [5] is on record as 80%. Moreover, in the assay on POAAN, the “Pre-emergence action at 1280 g/ha against POAAN in %” value was found to be 100%. Further, the “Pre-emergence action at 1280 g/ha against MATIN in %” value in the assay on MATIN [6] was 90%. The “Pre-emergence action at 1280 g/ha against STEME in %” value in the assay on STEME [7] turned out to be 100%.

In the case of `COC(=O)[C@@H](C)Oc1nn(-c2cnccn2)c(-c2cccc(F)c2)c1Br` [Example I-20], the results for the “Post-emergence action against AMARE in %” value in the assay on AMARE (dosage 80 g/ha) and in the assay with AMARE (dosage 320 g/ha) were 90% and 100%, respectively. The “Post-emergence action against PHBPU in %” value in the assay on PHBPU (dosage 320 g/ha) stood at 90%. The “Post-emergence action against POLCO in %” value in the assay on POLCO [1] amounted to 80%. The results for the “Post-emergence action against VERPE in %” value in the assay on VERPE [9] (dosage 80 g/ha) and in the assay on VERPE [9] (dosage 320 g/ha) were 80% and 90%, respectively. Besides, in the assay with ECHCG, the “Post-emergence action at 1280 g/ha against ECHCG in %” value turned out to be 100%. In addition, in the assay with STEME [2], the “Post-emergence action at 1280 g/ha against STEME in %” value came out at 100%. In addition, the “Pre-emergence action against SETVI in %” value in the assay on SETVI stood at 100%. The “Pre-emergence action against MATIN in %” value in the assay with MATIN [3] came to 90%. Besides, in the assay with POLCO [4], the “Pre-emergence action against POLCO in %” value is 80%. In addition, the “Pre-emergence action against VERPE in %” value with VERPE [5] is given as 100%. Further, in the assay with POAAN, the “Pre-emergence action at 1280 g/ha against POAAN in %” value was 100%. Moreover, the “Pre-emergence action at 1280 g/ha against MATIN in %” value with MATIN [6] is listed as 100%. Moreover, in the assay on STEME [7], the “Pre-emergence action at 1280 g/ha against STEME in %” value came out at 100%.
